Data: US20200360341A1, “INDOMETHACIN MENTHYL ESTER-BASED PHARMACEUTICAL COMPOSITIONS AND THEIR USE AS ANTI-INFLAMMATORY AGENTS” (OBSHESTVO S OGRANICHENNOI OTVETSTVENNOSTJU "FORBOS”, priority 2017, published 2020)

What was measured:
[1] = Pharmacokinetics: indomethacin in blood plasma after oral administration; assay type: in vivo, rats (Sprague Dawley); details: 25 mg/kg
Protocol: Pharmacokinetic properties of two MEI-based compositions were studied: composition 1 (liposome-encapsulated MEI), produced as described in example 1, and composition 3 (MEI solution), produced as described in example 3. MEI substance (as a suspension in starch solution) and indomethacin were used as reference drugs. Rats of Sprague Dawley stock were used. All test compounds were administered orally to rats in 25 mg/kg dose. Animal blood was sampled at certain time points (0; 0.25; 0.5; 1, 2, 4, 8, 16 and 24 hours) for analysis. Indomethacin content in animal blood plasma was determined using high-performance liquid chromatography (HPLC) method.

[2] = tested on: adjuvant-induced rheumatoid arthritis; test: Adjuvant-induced rheumatoid arthritis, inflammation severity by plethysmography; assay type: in vivo
Protocol: (§1) Anti-inflammatory and analgesic activity of MEI-based pharmaceutical composition after oral administration was studied in a model of chronic inflammation—adjuvant-induced rheumatoid arthritis in rats. To induce arthritis the rats were administered 100 mcl of complete Freund adjuvant (CFA), supplied by Sigma Aldrich, into the plantar surface of right hind paw. The control (intact) group 1 has received 100 mcl of saline. After CFA injection, local inflammation develops in a few hours, with subsequent pathologic changes in metacarpophalangeal joints and distal interphalangeal joints. Test compound (composition 3—MEI solution) and the reference drug (indomethacin) were administered once daily orally for 22 days, starting from 7th day after pathology induction. Test compound was administered in 6.25, 12.5 and 25 mg/kg doses. […] To assess the anti-inflammatory action of MEI in animals by pelthysmography, inflammation severity was measured as the difference between the masses of control and test paws, expressed in ml. Analgesic activity of MEI in animals was assessed by tactile reactivity threshold using the method of Chaplan et al. using the kit of 8 standard von Frey hairs (Stoelting, USA).

[3] = rats, oral administration; cited from earlier work
[4] = tested on: gastric mucosa; test: Ulcerogenic action on gastric mucosa after fourfold oral administration; assay type: in vivo, rats; details: for Average score (ulcerogenic action) / Average number of erosions / Average number of ulcers: 4 times orally; for Average score (ulcerogenic action): scale 0 (no damage) to 4 (gross damage); for Average number of erosions / Average number of ulcers: stomach 3 h after last administration
Protocol: Ulcerogenic action was measured using the following 4-point scale: 0—no damage; 0.5—slight hyperemia of gastric mucosa; 1—weak localized damage of gastric mucosa (single point bleeding, severe hyperemia); 2—weak distributed damage of gastric mucosa (small ulcers, erosions, multiple bleeding); 3—severe and distributed damage of gastric mucosa (erosions, ulcers, bleeding); 4—gross damage of the whole stomach (massive bleeding, erosion, ulcers, perforation).

[5] = tested on: yeast-induced fever; test: Yeast-induced fever (antipyretic activity); assay type: in vivo, rats (Sprague Dawley); details: n = 6
Protocol: Antipyretic activity of MEI-based pharmaceutical composition was studied in a model of yeast-induced fever in rats. Rats of Sprague Dawley stock were used. Fever was induced in rats by subcutaneous administration of baker's yeast suspension in 2000 mg/kg dose (calculated for dry yeast basis) in 2 ml volume into the animal withers 18 hours before test compound administration. Animal body temperature was measured using an electronic rectal thermometer (MLT1403 Rectal Temperature Probe and PowerLab 4/35 4-channel registration system module, ADlnstruments PtyLtd, Australia). Temperature was measured before yeast administration and 18 h after yeast administration. Afterwards the animals were administered the test compound, MEI-based pharmaceutical composition (composition 3—MEI solution, produced as described in Example 3) in 25, 50 and 100 mg/kg doses. Indomethacin in 10 mg/kg dose was used as a reference drug. Animals in control group have received the vehicle. Temperature was measured 2 and 4 hours after test compound administration.

[6] = tested on: serotonin-induced edema; test: Serotonin-induced paw edema (acute inflammation); assay type: in vivo, rats (Sprague Dawley); details: oral; for Inflammation inhibition index: 2 h before serotonin, 30 min after serotonin, n = 8
Protocol: Anti-inflammatory activity of MEI-based pharmaceutical compositions compared to MEI substance (as a suspension in starch solution) and indomethacin after oral administration was studied in a model of acute inflammation-paw edema induced by inflammation mediator serotonin. Rats of Sprague Dawley stock were used. […] Test compounds were administered orally 2 hours before the serotonin administration. […] Inflammation severity was measured by plethyosmography as the difference between the masses of control and test paws, expressed in ml. Anti-inflammatory activity of the test compounds was assessed by the inhibition index, calculated using the following formula: II=(([…])×100%, where II-inflammation inhibition index in %; Set-severity of inflammation in the control group, ml; St-severity of inflammation in the test group, ml.

[7] = tested on: adjuvant-induced rheumatoid arthritis; test: Adjuvant-induced rheumatoid arthritis, tactile reactivity threshold (von Frey hairs); assay type: in vivo, rats
Protocol: as §1

[8] = tested on: carrageenan-induced edema; test: Carrageenan-induced edema, intraperitoneal administration; assay type: in vivo, rats (Sprague Dawley); details: after 4 h
Protocol: Anti-inflammatory activity of MEI-based pharmaceutical composition after parenteral administration was studied in a model of carrageenan-induced edema. Rats of Sprague Dawley stock were used. 50 mcl of saline (“sodium chloride 0.9% solution for infusion”, NPK ESCOM, Russia) was injected intraplantarly into one hind paw (control paw), while 50 mcl of 1% λ-carrageenan solution was injected into another paw.
Inflammation severity was measured after 4 h using a plethysmometer (IITC Life Science, USA). Inflammation severity was measured by plethyosmography as the difference between the masses of control and test paws, expressed in ml. Test compound, pharmaceutical composition […] (MEI solution) was administered parenterally (intraperitoneally) 1 hour before λ-carrageenan administration, animals receiving the same amount of the vehicle were used as control. The animals were deprived of food 24 h before the study, water access was not limited.

[9] = 1 mg/kg oral once daily from day 7, day 21
[10] = 1 mg/kg oral once daily from day 7, day 28
[11] = 1 mg/kg oral once daily, day 7 (before test compound administration)
[12] = composition 3 (MEI solution) 6.25 mg/kg oral once daily from day 7, day 21
[13] = composition 3 (MEI solution) 6.25 mg/kg oral once daily from day 7, day 28
[14] = composition 3 (MEI solution) 6.25 mg/kg oral once daily, day 7 (before test compound administration)
[15] = composition 3 (MEI solution) 12.5 mg/kg oral once daily from day 7, day 21
[16] = composition 3 (MEI solution) 12.5 mg/kg oral once daily from day 7, day 28
[17] = composition 3 (MEI solution) 12.5 mg/kg oral once daily, day 7 (before test compound administration)
[18] = composition 3 (MEI solution) 25 mg/kg oral once daily from day 7, day 21
[19] = composition 3 (MEI solution) 25 mg/kg oral once daily from day 7, day 28
[20] = composition 3 (MEI solution) 25 mg/kg oral once daily, day 7 (before test compound administration)
[21] = MEI-based composition 100 mg/kg
[22] = composition 3 (MEI solution) 25 mg/kg oral
[23] = composition 3 (MEI solution) 50 mg/kg oral
[24] = composition 3 (MEI solution) 100 mg/kg oral

COc1ccc2c(c1)c(CC(=O)O)c(C)n2C(=O)c1ccc(Cl)cc1 [Indomethacin, 1-(4-chlorobenzoyl)-5-methoxy-2-methyl-1H-indole-3-acetic acid]
Tmax ([1]; Sprague-Dawley, rat blood plasma, read-out: time of reaching the maximal concentration (Tmax) of indomethacin): 4 h | Cmax ([1]; Sprague-Dawley, rat, plasma, indomethacin measured by HPLC, read-out: maximal concentration of indomethacin in rat blood plasma (Cmax)): 65.5 µg/mL | inflammation severity ([2]; 1 mg/kg oral once daily from day 7, day 14): 1.8 ± 0.24 mL | inflammation severity [2, 9]: 1.5 ± 0.18 mL | inflammation severity [2, 10]: 1.4 ± 0.28 mL | inflammation severity [2, 11]: 3.0 ± 0.59 mL | animal mortality ([2]; 5 mg/kg, oral once daily, arthritis model): animal mortality is observed | LD50 [3]: less than 15 mg/kg | Average score (ulcerogenic action) ([4]; 5 mg/kg): 3 | Average number of erosions ([4]; 5 mg/kg): 3.2 | Average number of ulcers ([4]; 5 mg/kg): 8 | gastric mucosa findings ([4]; four 5 mg/kg doses, oral): multiple ulcers and erosions | Average body temperature 2 h after test compound administration ([5]; 10 mg/kg): −0.98 °C | Average body temperature 4 h after test compound administration ([5]; 10 mg/kg): −0.85 °C | Inflammation inhibition index ([6]; 10 mg/kg): 43.5% | median-effective tactile reactivity threshold in an injected limb [7, 9]: 14.5 ± 3.18 g | median-effective tactile reactivity threshold in an injected limb [7, 10]: 16.0 ± 3.04 g | median-effective tactile reactivity threshold in an injected limb [7, 11]: 9.9 ± 2.34 g

COc1ccc2c(c1)c(CC(=O)OC1CC(C)CCC1C(C)C)c(C)n2C(=O)c1ccc(Cl)cc1 (stereo not shown) [MEI]
indomethacin concentration in blood plasma ([1]; suspension in starch solution, any time point 0-24 h): below the detection limit | inflammation severity ([2]; composition 3 (MEI solution) 6.25 mg/kg oral once daily from day 7, day 14): 2.5 ± 0.76 mL | inflammation severity [2, 12]: 1.8 ± 0.49 mL | inflammation severity [2, 13]: 1.9 ± 0.51 mL | inflammation severity [2, 14]: 2.8 ± 0.54 mL | inflammation severity ([2]; composition 3 (MEI solution) 12.5 mg/kg oral once daily from day 7, day 14): 1.9 ± 0.37 mL | inflammation severity [2, 15]: 2.0 ± 0.40 mL | inflammation severity [2, 16]: 1.1 ± 0.21 mL | inflammation severity [2, 17]: 2.6 ± 0.38 mL | inflammation severity ([2]; composition 3 (MEI solution) 25 mg/kg oral once daily from day 7, day 14): 1.5 ± 0.22 mL | inflammation severity [2, 18]: 0.9 ± 0.07 mL | inflammation severity [2, 19]: 0.8 ± 0.12 mL | inflammation severity [2, 20]: 2.4 ± 0.43 mL | Edema size ([8]; composition No 4 (MEI solution) 0.1 mg/kg intraperitoneally 1 h before carrageenan): 1.011 ± 0.115 mL | Edema size, % from control ([8]; composition No 4 (MEI solution) 0.1 mg/kg intraperitoneally): 91.2 % from control | Edema size ([8]; composition No 4 (MEI solution) 0.5 mg/kg intraperitoneally 1 h before carrageenan): 0.675 ± 0.065 mL | Edema size, % from control ([8]; composition No 4 (MEI solution) 0.5 mg/kg intraperitoneally): 60.9 % from control | Edema size ([8]; composition No 4 (MEI solution) 1.0 mg/kg intraperitoneally 1 h before carrageenan): 0.552 ± 0.097 mL | Edema size, % from control ([8]; composition No 4 (MEI solution) 1.0 mg/kg intraperitoneally): 45.0 % from control | Edema size ([8]; composition No 4 (MEI solution) 10 mg/kg intraperitoneally 1 h before carrageenan): 0.201 ± 0.176 mL | Edema size, % from control ([8]; composition No 4 (MEI solution) 10 mg/kg intraperitoneally): 18.1 % from control | Edema size ([8]; composition No 4 (MEI solution) 50 mg/kg intraperitoneally 1 h before carrageenan): 0.288 ± 0.152 mL | Edema size, % from control ([8]; composition No 4 (MEI solution) 50 mg/kg intraperitoneally): 26.0 % from control | Average score (ulcerogenic action) ([4]; MEI-based composition 25 mg/kg): 0 | Average number of erosions ([4]; MEI-based composition 25 mg/kg): 0 | Average number of ulcers ([4]; MEI-based composition 25 mg/kg): 0 | Average score (ulcerogenic action) ([4]; MEI-based composition 50 mg/kg): 0 | Average number of erosions ([4]; MEI-based composition 50 mg/kg): 0 | Average number of ulcers ([4]; MEI-based composition 50 mg/kg): 0 | Average score (ulcerogenic action) [4, 21]: 0.4 | Average number of erosions [4, 21]: 0 | Average number of ulcers [4, 21]: 0.8 | Average body temperature 2 h after test compound administration [5, 22]: −0.53 °C | Average body temperature 4 h after test compound administration [5, 22]: −0.45 °C | Average body temperature 2 h after test compound administration [5, 23]: −0.93 °C | Average body temperature 4 h after test compound administration [5, 23]: −0.82 °C | Average body temperature 2 h after test compound administration [5, 24]: −0.78 °C | Average body temperature 4 h after test compound administration [5, 24]: −0.68 °C | anti-inflammatory effect in model of acute inflammation ([6]; 25 mg/kg): doesn't have significant anti-inflammatory effects | Inflammation inhibition index ([6]; 25 mg/kg active agent): 4.3% | median-effective tactile reactivity threshold in an injected limb [7, 12]: 10.4 ± 3.09 g | median-effective tactile reactivity threshold in an injected limb [7, 13]: 9.6 ± 2.67 g | median-effective tactile reactivity threshold in an injected limb [7, 14]: 11.7 ± 2.93 g | median-effective tactile reactivity threshold in an injected limb [7, 15]: 13.3 ± 2.55 g | median-effective tactile reactivity threshold in an injected limb [7, 16]: 14.8 ± 2.35 g | median-effective tactile reactivity threshold in an injected limb [7, 17]: 11.8 ± 3.12 g | median-effective tactile reactivity threshold in an injected limb [7, 18]: 16.6 ± 2.64 g | median-effective tactile reactivity threshold in an injected limb [7, 19]: 18.2 ± 2.57 g | median-effective tactile reactivity threshold in an injected limb [7, 20]: 9.8 ± 2.14 g
